Assay results as given in BindingDB's records for doi:10.1111/cbdd.12546 (Zhejiang University of Technology, 2015).

Target: Glycogen synthase kinase-3 beta (Homo sapiens, UniProt P49841)
Assay: Kinase Assay

Glycogen synthase kinase-3 beta, sequence (P49841 whole entry): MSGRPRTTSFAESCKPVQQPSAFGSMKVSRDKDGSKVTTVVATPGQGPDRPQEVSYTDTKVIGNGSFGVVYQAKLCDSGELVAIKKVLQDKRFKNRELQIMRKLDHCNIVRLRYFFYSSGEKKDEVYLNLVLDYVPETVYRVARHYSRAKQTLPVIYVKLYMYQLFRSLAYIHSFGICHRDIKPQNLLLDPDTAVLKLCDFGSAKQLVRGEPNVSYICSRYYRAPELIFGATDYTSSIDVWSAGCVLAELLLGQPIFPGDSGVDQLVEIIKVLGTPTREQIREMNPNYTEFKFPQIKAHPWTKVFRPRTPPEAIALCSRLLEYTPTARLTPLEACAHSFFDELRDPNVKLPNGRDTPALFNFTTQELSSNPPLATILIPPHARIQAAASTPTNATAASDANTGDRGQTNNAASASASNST

Row | IC50 [nM] | Compound
1 | 190 | CC(C)n1cc(C2=C(c3coc4ncccc34)C(=O)NC2=O)c2ccccc21 [3-(Furo[2,3-b]pyridin-3-yl)-4-(1-isopropyl-1H-indol-3-yl)-1H-pyrrole-2,5-dione (5m)]
2 | 1840 | Cn1cc(C2=C(c3coc4ncccc34)C(=O)NC2=O)c2ccc(Cl)cc21 [3-(6-Chloro-1-methyl-1H-indol-3-yl)-4-(furo[2,3-b]pyridin-3-yl)-1H-pyrrole-2,5-dione (5g)]
3 | 290 | Cc1cccc2c(C3=C(c4coc5ncccc45)C(=O)NC3=O)cn(C)c12 [3-(1,7-dimethyl-1H-indol-3-yl)-4-(furo[2,3-b]pyridin-3-yl)-1H-pyrrole-2,5-dione (5c)]
4 | 1310 | COc1ccc2c(c1)c(C1=C(c3coc4ncccc34)C(=O)NC1=O)cn2C [3-(Furo[2,3-b]pyridin-3-yl)-4-(5-methoxy-1-methyl-1H-indol-3-yl)-1H-pyrrole-2,5-dione (5j)]
5 | 530 | C=CCn1cc(C2=C(c3coc4ncccc34)C(=O)NC2=O)c2ccccc21 [3-(1-Allyl-1H-indol-3-yl)-4-(furo[2,3-b]pyridin-3-yl)-1H-pyrrole-2,5-dione (5k)]
6 | 190 | O=C1NC(=O)C(c2cn(CCCn3ccnc3)c3ccc(Br)cc23)=C1c1coc2ncccc12 [3-(1-(3-(1H-Imidazol-1-yl)propyl)-5-bromo-1H-indol-3-yl)-4-(furo[2,3-b]pyridin-3-yl)-1H-pyrrole-2,5-dione (5o)]
7 | 240 | O=C1NC(=O)C(c2cn(CCCn3ccnc3)c3ccc(Cl)cc23)=C1c1coc2ncccc12 [3-(1-(3-(1H-Imidazol-1-yl)propyl)-5-chloro-1H-indol-3-yl)-4-(furo[2,3-b]pyridin-3-yl)-1H-pyrrole-2,5-dione (5p)]
8 | 390 | Cn1cc(C2=C(c3coc4ncccc34)C(=O)NC2=O)c2cc(F)ccc21 [3-(5-Fluoro-1-methyl-1H-indol-3-yl)-4-(furo[2,3-b]pyridin-3-yl)-1H-pyrrole-2,5-dione (5d)]
9 | 170 | Cn1cc(C2=C(c3coc4ncccc34)C(=O)NC2=O)c2cc(Cl)ccc21 [3-(5-Chloro-1-methyl-1H-indol-3-yl)-4-(furo[2,3-b]pyridin-3-yl)-1H-pyrrole-2,5-dione (5f)]
10 | 210 | O=C1NC(=O)C(c2cn(CCCn3ccnc3)c3ccccc23)=C1c1coc2ncccc12 [3-(1-(3-(1H-Imidazol-1-yl)propyl)-1H-indol-3-yl)-4-(furo[2,3-b]pyridin-3-yl)-1H-pyrrole-2,5-dione (5n)]
11 | 70 | Cn1cc(C2=C(c3coc4ncccc34)C(=O)NC2=O)c2cc(Br)ccc21 [3-(5-Bromo-1-methyl-1H-indol-3-yl)-4-(furo[2,3-b]pyridin-3-yl)-1H-pyrrole-2,5-dione (5h)]
12 | 690 | O=C1NC(=O)C(c2cn(CCCN3CCOCC3)c3ccccc23)=C1c1coc2ncccc12 [3-(Furo[2,3-b]pyridin-3-yl)-4-(1-(3-morpholinopropyl)-1H-indol-3-yl)-1H-pyrrole-2,5-dione (5r)]
13 | 1780 | O=C1NC(=O)C(c2coc3ncccc23)=C1c1c[nH]c2ccccc12 [3-(Furo[2,3-b]pyridin-3-yl)-4-(1H-indol-3-yl)-1H-pyrrole-2,5-dione (5a)]
14 | 310 | O=C1NC(=O)C(c2cn(CCCO)c3ccccc23)=C1c1coc2ncccc12 [3-(Furo[2,3-b]pyridin-3-yl)-4-(1-(3-hydroxypropyl)-1H-indol-3-yl)-1H-pyrrole-2,5-dione (5q)]
15 | 1940 | Cn1cc(C2=C(c3coc4ncccc34)C(=O)NC2=O)c2ccc(Br)cc21 [3-(6-Bromo-1-methyl-1H-indol-3-yl)-4-(furo[2,3-b]pyridin-3-yl)-1H-pyrrole-2,5-dione (5i)]
16 | 570 | CCCCn1cc(C2=C(c3coc4ncccc34)C(=O)NC2=O)c2ccccc21 [3-(1-Butyl-1H-indol-3-yl)-4-(furo[2,3-b]pyridin-3-yl)-1H-pyrrole-2,5-dione (5l)]
17 | 560 | Cn1cc(C2=C(c3coc4ncccc34)C(=O)NC2=O)c2ccc(F)cc21 [3-(6-Fluoro-1-methyl-1H-indol-3-yl)-4-(furo[2,3-b]pyridin-3-yl)-1H-pyrrole-2,5-dione (5e)]
18 | 280 | Cn1cc(C2=C(c3coc4ncccc34)C(=O)NC2=O)c2ccccc21 [3-(Furo[2,3-b]pyridin-3-yl)-4-(1-methyl-1H-indol-3-yl)-1H-pyrrole-2,5-dione (5b)]
